{"source": "the OligoGym collection", "note": "Oligonucleotides are given in HELM: sugar(base)linkage, 5' to 3'; d 2'-deoxyribose, r ribose, m 2'-O-methylribose, p phosphate. ss, as = sense and antisense strand; also: test concentration or dose not given here"}
{"target": "Mmp7 (rat)", "assay": "reporter assay of Huesken 2005", "conditions": "siRNA", "units": {"normalised inhibition (eCFP-eYFP dual reporter)": "%"}}
{"substance": "RNA1{r(A)p.r(A)p.r(A)p.r(A)p.r(C)p.r(A)p.r(A)p.r(A)p.r(G)p.r(A)p.r(A)p.r(G)p.r(G)p.r(C)p.r(C)p.r(A)p.r(C)p.r(C)p.r(A)p.d(T)p.d(T)}|RNA2{r(U)p.r(G)p.r(G)p.r(U)p.r(G)p.r(G)p.r(C)p.r(C)p.r(U)p.r(U)p.r(C)p.r(U)p.r(U)p.r(U)p.r(G)p.r(U)p.r(U)p.r(U)p.r(U)p.d(A)p.d(G)}$$$RNA1{StrandType:ss}|RNA2{StrandType:as}$", "normalised inhibition (eCFP-eYFP dual reporter)": 45.7}
{"substance": "RNA1{r(A)p.r(A)p.r(A)p.r(C)p.r(U)p.r(G)p.r(A)p.r(G)p.r(G)p.r(G)p.r(A)p.r(A)p.r(A)p.r(U)p.r(G)p.r(C)p.r(A)p.r(G)p.r(A)p.d(T)p.d(T)}|RNA2{r(U)p.r(C)p.r(U)p.r(G)p.r(C)p.r(A)p.r(U)p.r(U)p.r(U)p.r(C)p.r(C)p.r(C)p.r(U)p.r(C)p.r(A)p.r(G)p.r(U)p.r(U)p.r(U)p.d(G)p.d(T)}$$$RNA1{StrandType:ss}|RNA2{StrandType:as}$", "normalised inhibition (eCFP-eYFP dual reporter)": 116}
{"substance": "RNA1{r(A)p.r(A)p.r(A)p.r(U)p.r(U)p.r(U)p.r(U)p.r(A)p.r(C)p.r(C)p.r(U)p.r(U)p.r(C)p.r(A)p.r(C)p.r(G)p.r(A)p.r(C)p.r(U)p.d(T)p.d(T)}|RNA2{r(A)p.r(G)p.r(U)p.r(C)p.r(G)p.r(U)p.r(G)p.r(A)p.r(A)p.r(G)p.r(G)p.r(U)p.r(A)p.r(A)p.r(A)p.r(A)p.r(U)p.r(U)p.r(U)p.d(C)p.d(C)}$$$RNA1{StrandType:ss}|RNA2{StrandType:as}$", "normalised inhibition (eCFP-eYFP dual reporter)": 74.4}
{"substance": "RNA1{r(A)p.r(A)p.r(C)p.r(A)p.r(A)p.r(A)p.r(G)p.r(A)p.r(A)p.r(G)p.r(G)p.r(C)p.r(C)p.r(A)p.r(C)p.r(C)p.r(A)p.r(G)p.r(U)p.d(T)p.d(T)}|RNA2{r(A)p.r(C)p.r(U)p.r(G)p.r(G)p.r(U)p.r(G)p.r(G)p.r(C)p.r(C)p.r(U)p.r(U)p.r(C)p.r(U)p.r(U)p.r(U)p.r(G)p.r(U)p.r(U)p.d(T)p.d(T)}$$$RNA1{StrandType:ss}|RNA2{StrandType:as}$", "normalised inhibition (eCFP-eYFP dual reporter)": 87.1}
{"substance": "RNA1{r(A)p.r(A)p.r(C)p.r(U)p.r(U)p.r(C)p.r(C)p.r(C)p.r(A)p.r(U)p.r(U)p.r(U)p.r(G)p.r(A)p.r(U)p.r(G)p.r(G)p.r(G)p.r(C)p.d(T)p.d(T)}|RNA2{r(G)p.r(C)p.r(C)p.r(C)p.r(A)p.r(U)p.r(C)p.r(A)p.r(A)p.r(A)p.r(U)p.r(G)p.r(G)p.r(G)p.r(A)p.r(A)p.r(G)p.r(U)p.r(U)p.d(G)p.d(T)}$$$RNA1{StrandType:ss}|RNA2{StrandType:as}$", "normalised inhibition (eCFP-eYFP dual reporter)": 0.2}
{"substance": "RNA1{r(A)p.r(A)p.r(G)p.r(C)p.r(C)p.r(C)p.r(A)p.r(G)p.r(G)p.r(U)p.r(G)p.r(U)p.r(G)p.r(G)p.r(A)p.r(G)p.r(U)p.r(G)p.r(C)p.d(T)p.d(T)}|RNA2{r(G)p.r(C)p.r(A)p.r(C)p.r(U)p.r(C)p.r(C)p.r(A)p.r(C)p.r(A)p.r(C)p.r(C)p.r(U)p.r(G)p.r(G)p.r(G)p.r(C)p.r(U)p.r(U)p.d(C)p.d(T)}$$$RNA1{StrandType:ss}|RNA2{StrandType:as}$", "normalised inhibition (eCFP-eYFP dual reporter)": 47.5}
{"substance": "RNA1{r(A)p.r(A)p.r(G)p.r(G)p.r(A)p.r(U)p.r(G)p.r(A)p.r(G)p.r(U)p.r(A)p.r(C)p.r(U)p.r(G)p.r(G)p.r(A)p.r(C)p.r(G)p.r(G)p.d(T)p.d(T)}|RNA2{r(C)p.r(C)p.r(G)p.r(U)p.r(C)p.r(C)p.r(A)p.r(G)p.r(U)p.r(A)p.r(C)p.r(U)p.r(C)p.r(A)p.r(U)p.r(C)p.r(C)p.r(U)p.r(U)p.d(G)p.d(T)}$$$RNA1{StrandType:ss}|RNA2{StrandType:as}$", "normalised inhibition (eCFP-eYFP dual reporter)": 75.8}
{"substance": "RNA1{r(A)p.r(A)p.r(G)p.r(G)p.r(C)p.r(C)p.r(A)p.r(C)p.r(C)p.r(A)p.r(G)p.r(U)p.r(G)p.r(C)p.r(A)p.r(G)p.r(U)p.r(G)p.r(G)p.d(T)p.d(T)}|RNA2{r(C)p.r(C)p.r(A)p.r(C)p.r(U)p.r(G)p.r(C)p.r(A)p.r(C)p.r(U)p.r(G)p.r(G)p.r(U)p.r(G)p.r(G)p.r(C)p.r(C)p.r(U)p.r(U)p.d(C)p.d(T)}$$$RNA1{StrandType:ss}|RNA2{StrandType:as}$", "normalised inhibition (eCFP-eYFP dual reporter)": 22.3}
{"substance": "RNA1{r(A)p.r(A)p.r(G)p.r(U)p.r(G)p.r(A)p.r(C)p.r(C)p.r(G)p.r(C)p.r(A)p.r(C)p.r(U)p.r(U)p.r(C)p.r(A)p.r(G)p.r(U)p.r(G)p.d(T)p.d(T)}|RNA2{r(C)p.r(A)p.r(C)p.r(U)p.r(G)p.r(A)p.r(A)p.r(G)p.r(U)p.r(G)p.r(C)p.r(G)p.r(G)p.r(U)p.r(C)p.r(A)p.r(C)p.r(U)p.r(U)p.d(C)p.d(T)}$$$RNA1{StrandType:ss}|RNA2{StrandType:as}$", "normalised inhibition (eCFP-eYFP dual reporter)": 79.7}
{"substance": "RNA1{r(A)p.r(A)p.r(G)p.r(U)p.r(U)p.r(C)p.r(U)p.r(U)p.r(C)p.r(G)p.r(G)p.r(U)p.r(U)p.r(U)p.r(G)p.r(C)p.r(C)p.r(G)p.r(G)p.d(T)p.d(T)}|RNA2{r(C)p.r(C)p.r(G)p.r(G)p.r(C)p.r(A)p.r(A)p.r(A)p.r(C)p.r(C)p.r(G)p.r(A)p.r(A)p.r(G)p.r(A)p.r(A)p.r(C)p.r(U)p.r(U)p.d(C)p.d(T)}$$$RNA1{StrandType:ss}|RNA2{StrandType:as}$", "normalised inhibition (eCFP-eYFP dual reporter)": 1.8}
{"substance": "RNA1{r(A)p.r(A)p.r(U)p.r(G)p.r(C)p.r(A)p.r(G)p.r(A)p.r(A)p.r(G)p.r(C)p.r(C)p.r(C)p.r(A)p.r(G)p.r(G)p.r(U)p.r(G)p.r(U)p.d(T)p.d(T)}|RNA2{r(A)p.r(C)p.r(A)p.r(C)p.r(C)p.r(U)p.r(G)p.r(G)p.r(G)p.r(C)p.r(U)p.r(U)p.r(C)p.r(U)p.r(G)p.r(C)p.r(A)p.r(U)p.r(U)p.d(A)p.d(T)}$$$RNA1{StrandType:ss}|RNA2{StrandType:as}$", "normalised inhibition (eCFP-eYFP dual reporter)": 86.1}
{"substance": "RNA1{r(A)p.r(A)p.r(U)p.r(U)p.r(U)p.r(U)p.r(A)p.r(C)p.r(C)p.r(U)p.r(U)p.r(C)p.r(A)p.r(C)p.r(G)p.r(A)p.r(C)p.r(U)p.r(C)p.d(T)p.d(T)}|RNA2{r(G)p.r(A)p.r(G)p.r(U)p.r(C)p.r(G)p.r(U)p.r(G)p.r(A)p.r(A)p.r(G)p.r(G)p.r(U)p.r(A)p.r(A)p.r(A)p.r(A)p.r(U)p.r(U)p.d(T)p.d(C)}$$$RNA1{StrandType:ss}|RNA2{StrandType:as}$", "normalised inhibition (eCFP-eYFP dual reporter)": 76.1}
{"substance": "RNA1{r(A)p.r(C)p.r(A)p.r(G)p.r(G)p.r(C)p.r(G)p.r(C)p.r(A)p.r(G)p.r(A)p.r(A)p.r(U)p.r(U)p.r(A)p.r(U)p.r(C)p.r(U)p.r(U)p.d(T)p.d(T)}|RNA2{r(A)p.r(A)p.r(G)p.r(A)p.r(U)p.r(A)p.r(A)p.r(U)p.r(U)p.r(C)p.r(U)p.r(G)p.r(C)p.r(G)p.r(C)p.r(C)p.r(U)p.r(G)p.r(U)p.d(T)p.d(C)}$$$RNA1{StrandType:ss}|RNA2{StrandType:as}$", "normalised inhibition (eCFP-eYFP dual reporter)": 75.6}
{"substance": "RNA1{r(A)p.r(C)p.r(A)p.r(G)p.r(U)p.r(C)p.r(C)p.r(U)p.r(A)p.r(A)p.r(G)p.r(U)p.r(G)p.r(G)p.r(C)p.r(A)p.r(U)p.r(U)p.r(C)p.d(T)p.d(T)}|RNA2{r(G)p.r(A)p.r(A)p.r(U)p.r(G)p.r(C)p.r(C)p.r(A)p.r(C)p.r(U)p.r(U)p.r(A)p.r(G)p.r(G)p.r(A)p.r(C)p.r(U)p.r(G)p.r(U)p.d(T)p.d(T)}$$$RNA1{StrandType:ss}|RNA2{StrandType:as}$", "normalised inhibition (eCFP-eYFP dual reporter)": 65.7}
{"substance": "RNA1{r(A)p.r(C)p.r(C)p.r(G)p.r(G)p.r(G)p.r(G)p.r(C)p.r(C)p.r(A)p.r(G)p.r(G)p.r(C)p.r(C)p.r(U)p.r(C)p.r(G)p.r(G)p.r(C)p.d(T)p.d(T)}|RNA2{r(G)p.r(C)p.r(C)p.r(G)p.r(A)p.r(G)p.r(G)p.r(C)p.r(C)p.r(U)p.r(G)p.r(G)p.r(C)p.r(C)p.r(C)p.r(C)p.r(G)p.r(G)p.r(U)p.d(G)p.d(C)}$$$RNA1{StrandType:ss}|RNA2{StrandType:as}$", "normalised inhibition (eCFP-eYFP dual reporter)": 11}
{"substance": "RNA1{r(A)p.r(C)p.r(U)p.r(C)p.r(A)p.r(G)p.r(G)p.r(C)p.r(G)p.r(U)p.r(G)p.r(A)p.r(A)p.r(C)p.r(U)p.r(U)p.r(C)p.r(C)p.r(U)p.d(T)p.d(T)}|RNA2{r(A)p.r(G)p.r(G)p.r(A)p.r(A)p.r(G)p.r(U)p.r(U)p.r(C)p.r(A)p.r(C)p.r(G)p.r(C)p.r(C)p.r(U)p.r(G)p.r(A)p.r(G)p.r(U)p.d(C)p.d(C)}$$$RNA1{StrandType:ss}|RNA2{StrandType:as}$", "normalised inhibition (eCFP-eYFP dual reporter)": 73.1}
{"substance": "RNA1{r(A)p.r(C)p.r(U)p.r(C)p.r(U)p.r(C)p.r(U)p.r(G)p.r(G)p.r(G)p.r(U)p.r(C)p.r(U)p.r(G)p.r(G)p.r(G)p.r(U)p.r(C)p.r(A)p.d(T)p.d(T)}|RNA2{r(U)p.r(G)p.r(A)p.r(C)p.r(C)p.r(C)p.r(A)p.r(G)p.r(A)p.r(C)p.r(C)p.r(C)p.r(A)p.r(G)p.r(A)p.r(G)p.r(A)p.r(G)p.r(U)p.d(G)p.d(G)}$$$RNA1{StrandType:ss}|RNA2{StrandType:as}$", "normalised inhibition (eCFP-eYFP dual reporter)": 61.8}
{"substance": "RNA1{r(A)p.r(C)p.r(U)p.r(C)p.r(U)p.r(U)p.r(C)p.r(U)p.r(G)p.r(U)p.r(U)p.r(C)p.r(C)p.r(C)p.r(A)p.r(G)p.r(U)p.r(U)p.r(C)p.d(T)p.d(T)}|RNA2{r(G)p.r(A)p.r(A)p.r(C)p.r(U)p.r(G)p.r(G)p.r(G)p.r(A)p.r(A)p.r(C)p.r(A)p.r(G)p.r(A)p.r(A)p.r(G)p.r(A)p.r(G)p.r(U)p.d(G)p.d(A)}$$$RNA1{StrandType:ss}|RNA2{StrandType:as}$", "normalised inhibition (eCFP-eYFP dual reporter)": 81.4}
{"substance": "RNA1{r(A)p.r(C)p.r(U)p.r(G)p.r(G)p.r(A)p.r(C)p.r(G)p.r(G)p.r(A)p.r(U)p.r(G)p.r(G)p.r(U)p.r(G)p.r(A)p.r(G)p.r(G)p.r(A)p.d(T)p.d(T)}|RNA2{r(U)p.r(C)p.r(C)p.r(U)p.r(C)p.r(A)p.r(C)p.r(C)p.r(A)p.r(U)p.r(C)p.r(C)p.r(G)p.r(U)p.r(C)p.r(C)p.r(A)p.r(G)p.r(U)p.d(A)p.d(C)}$$$RNA1{StrandType:ss}|RNA2{StrandType:as}$", "normalised inhibition (eCFP-eYFP dual reporter)": 46.5}
{"substance": "RNA1{r(A)p.r(C)p.r(U)p.r(U)p.r(C)p.r(A)p.r(G)p.r(U)p.r(C)p.r(U)p.r(U)p.r(A)p.r(C)p.r(A)p.r(A)p.r(A)p.r(G)p.r(G)p.r(A)p.d(T)p.d(T)}|RNA2{r(U)p.r(C)p.r(C)p.r(U)p.r(U)p.r(U)p.r(G)p.r(U)p.r(A)p.r(A)p.r(G)p.r(A)p.r(C)p.r(U)p.r(G)p.r(A)p.r(A)p.r(G)p.r(U)p.d(C)p.d(T)}$$$RNA1{StrandType:ss}|RNA2{StrandType:as}$", "normalised inhibition (eCFP-eYFP dual reporter)": 112}
